Experimental data published in patent US20220187281A1, “METHODS AND SYSTEMS FOR EVALUATION OF CELL SAMPLES” (priority 2019, published 2022).

How the values were obtained:
BR0851 TNBC PDX tumor = assay: Cell-Titer Blue viability of BR0851 TNBC PDX tumor slices; type: cell-based, human; conditions: for sensitivity by viability assay readings: 12 days ex vivo compared to 0 div; for response profile of tumor slices: by 13 div, long-term exposure
BR1126 TNBC PDX tumor = assay: Cell-Titer Blue viability of BR1126 TNBC PDX tumor slices; type: cell-based, human
BR0851 TNBC PDX slices = assay: Immunohistochemical analysis of BR0851 TNBC PDX slices; type: cell-based, human; conditions: BR0851 slices at 13 div; for overall cell numbers (immunohistochemical analysis): compared with vehicle
[1] = system: patient tumor tissue samples from two locations; assay: Viability of samples from two locations of the same patient tumor (Example 6); type: cell-based; conditions: 0, 3, 5, 9, and 12 days in vitro
Procedure: Tumor tissue samples from two locations of the same patient tumor are obtained and cultured as described in Example 1. Each sample is treated with Cisplatin (Cis), Doxorubicin (Dox) or Paclitaxel (Taxol). Viability measurements are obtained at 0, 3, 5, 9, and 12 days in vitro.

BR1126 TNBC PDX = conditions: JAX PDX Resource data; cited from earlier work
BR0851 TNBC PDX = conditions: JAX PDX Resource data; cited from earlier work
[2] = system: colorectal cancer PDX model (mCRC); assay: Cell-Titer Blue viability of colorectal cancer PDX model (FIG. 2E); type: cell-based, human; conditions: oxaliplatin 0.1, 1, 10 μM; 5-FU 1, 10, 100 μM; days 0, 4, 8 in vitro
[3] = system: CN0458 colon tumor slices; assay: Cell-Titer Blue viability of CN0458 colon PDX tumor slices; type: cell-based, human; conditions: 100 uM
[4] = system: human metastatic colorectal cancer (mCRC) biopsy core; assay: CTB viability of human mCRC biopsy core slices in long-term culture (therapy resistance); type: cell-based; conditions: encorafenib 100 nM, binimetinib 100 nM; 16 days in culture (days 16 and 20)
Procedure: (§1) 5 μl of Cell-Titer Blue (CTB) (Promega) substrate was added to 1 ml of culture medium and incubated at 37° C. for 15 or 24 hr. 100 μl of media was removed from each sample culture and fluorescence was measured (Ex560/Em590) using Enspire® multimode plate reader (Perkin Elmer®). Background fluorescence of the culture medium was subtracted from each sample reading at each day Immediately following the CTB reading, media was changed and drugs were added to fresh media to continue culture. At desired time points, additional viability measurements were made to collect longitudinal data and conditioned media is collected and analyzed. After the final time point, tissues were fixed in formalin and embedded in paraffin or OCT for histological analyses or lysed in RIPA buffer or Trizol and conditioned media is frozen. To account for variability in tissue composition of each slice punch, viability readings of each sample was normalized to the respective CTB reading immediately after slicing (0 days ex vivo: 1 dex CTB reading) and relative fold changes in CTB readings at each time point were analyzed.
(§2) Samples were precision cut into […] thick slices using a Vibratome VT1200S (Leica Microsystems). […]

[5] = system: human metastatic colorectal cancer (mCRC) biopsy cores; assay: CTB viability of mCRC biopsy core slices from two patients (immunotherapy response); type: cell-based; conditions: nivolumab 10 μg/mL, encorafenib 100 nM, cetuximab 10 μg/mL; early and late time points
Procedure: as §1, §2

CNSTG colon tumor slices = assay: Cell-Titer Blue viability of CNSTG colon PDX tumor slices; type: cell-based, human; conditions: 100 uM
[6] = compared with vehicle or Cisplatin treated tissues

N.N.[Cl][Pt][Cl] [Cisplatin]
sensitivity by viability assay readings (BR0851 TNBC PDX tumor): insensitive
response profile of tumor slices (BR0851 TNBC PDX tumor): progressive disease profile
ex vivo treatment response (BR1126 TNBC PDX tumor): partial response
sensitivity by viability assay readings (BR1126 TNBC PDX tumor): sensitive
overall cell numbers (immunohistochemical analysis) (BR0851 TNBC PDX slices): similar
difference between viability measurements of the two tumor locations [1]: significant difference
in vivo treatment response (BR1126 TNBC PDX): partial response
in vivo treatment response (BR0851 TNBC PDX): no response

O=c1[nH]cc(F)c(=O)[nH]1 [5-FU, 5-fluorouracil]
cell viability response [2]: no reduction in cell viability
suppression of viability of CN0458 slices compared with CNSTG slices [3]: more effective

CC(=O)O[C@H]1C(=O)[C@@]2(C)[C@H]([C@H](OC(=O)c3ccccc3)[C@]3(O)C[C@H](OC(=O)[C@H](O)[C@@H](NC(=O)c4ccccc4)c4ccccc4)C(C)=C1C3(C)C)[C@]1(OC(C)=O)CO[C@@H]1C[C@@H]2O [Paclitaxel]
sensitivity by viability assay readings (BR1126 TNBC PDX tumor): sensitive
difference between viability measurements of the two tumor locations [1]: significant difference

COC(=O)N[C@@H](C)CNc1nccc(-c2cn(C(C)C)nc2-c2cc(Cl)cc(NS(C)(=O)=O)c2F)n1 [encorafenib]
therapy resistance in long-term culture (viability) [4]: emergence of encorafenib resistance

COc1cccc2c1C(=O)c1c(O)c3c(c(O)c1C2=O)C[C@@](O)(C(=O)CO)C[C@@H]3O[C@H]1C[C@H](N)[C@H](O)[C@H](C)O1 [Doxorubicin]
sensitivity by viability assay readings (BR0851 TNBC PDX tumor): sensitive
response profile of tumor slices (BR0851 TNBC PDX tumor): complete response
overall cell numbers (immunohistochemical analysis) (BR0851 TNBC PDX slices): overall reduction in cell numbers
necrotic regions (BR0851 TNBC PDX slices; [6]): increase
pyknotic and abnormal nuclei (BR0851 TNBC PDX slices; [6]): increase
difference between viability measurements of the two tumor locations [1]: significant difference

nivolumab
sensitivity of the two mCRC patient samples (viability) [5]: differential sensitivity

Cn1cnc2c(F)c(Nc3ccc(Br)cc3F)c(C(=O)NOCCO)cc21 [binimetinib]
therapy resistance in long-term culture (viability) [4]: suppressed

O=C1[O][Pt]2([NH][C@@H]3CCCC[C@H]3[NH]2)[O]C1=O [oxaliplatin]
cell viability response [2]: dose and time-dependent response
suppression of viability of CNSTG slices compared with CN0458 slices (CNSTG colon tumor slices): more effective
